Data on six molecules can be found in patent US20220324835A1 (Nurix Therapeutics, Inc., priority 2018, published 2022).

Read-outs that look alike come from different tables or passages of the source.

Test [1] has as its system human T-cells with allogenic immature dendritic cells. The test can be described thus: Allogenic mixed lymphocyte reaction (MLR), T-cell proliferation. As to conditions: 120 h, 5 days, baseline T-cells without Cbl-b inhibitor, read-out: Proliferation, fold change over baseline. The format is cell-based. In a few lines: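 CFSE-labelled primary human T-cells, preincubated with Cbl-b inhibitor, stimulated by allogenic immature dendritic cells derived from monocytes with GM-CSF (30 ng/mL) and IL-4 (20 ng/mL) over 7 days. Proliferation by flow cytometry, expressed as fold over inhibitor-free baseline; >2-fold counted positive.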

The test system of test [2] is T-cells. The test can be described thus: In vivo activity: CD25 expression on CD4+ or CD8+ T-cells of mice stimulated with anti-CD3 antibody. To be noted: 2 μg anti-CD3 antibody, 24 hours. In a few lines: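 C57BL/6 or BALB/c mice dosed with inhibitor (IV, IP, SC or PO, e.g. BID or TID), then stimulated with 2 μg anti-CD3 antibody. Plasma IL-2, IFNγ, TNFα at 8 h and CD25 on CD4+/CD8+ T-cells by flow cytometry at 24 h; fold change over vehicle plus anti-CD3, binned A–E.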

Test [3] relates to primary human NK cells. The test can be described thus: NK cell activation assessed by cytokine secretion (coculture with K562 NucRed target cells). It is filed as cell-based. To be noted: K562, NK cells cocultured with K562 NucRed, 1:1 E/T; for fold induction at 0.625 µM: 0.625 μM compound; for fold induction at 2.5 µM: 2.5 μM compound; for fold induction at 10 µM: 10 μM compound. In a few lines: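 Read-out is cytokine secretion (IFNγ, TNFα, MIP1β; ELISA or Luminex) as fold over coculture without inhibitor, >2.0-fold taken as positive. Donor NK cells, IL-2 primed (60 ng/mL) overnight, received compound 1 h ahead (e.g. 0.1–10 μM, DMSO <0.1%) and were mixed 6 h with K562 NucRed targets at e.g. 5:1, 1:1, 1:5.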

Where [4] appears, read: read-out: IFNγ secretion, fold change over baseline.
[5] abbreviates: read-out: TNFα secretion, fold change over baseline.

With `Cc1cc(C(=O)Nc2cccc(C3(Cc4nncn4C)COC3)c2)nc(C2CC2)n1` [Compound 336, 2-cyclopropyl-6-methyl-N-(3-(3-((4-methyl-4H-1,2,4-triazol-3-yl)methyl)oxetan-3-yl)phenyl)pyrimidine-4-carboxamide], in test [1], the fold induction at 3 µM was less than 2. The fold induction at 10 µM is more than 3.01 in test [1], more than 5 in test [3] (setting [4]) and 2.01 to 5 in test [3] (setting [5]). Moreover, the “CD4+ T-cell % CD25+” value in test [2] (45 mpk PO BID) is listed as “D (D indicates 1.00-1.50)”; in test [2] (90 mpk PO BID) it was “D (D indicates 1.00-1.50)”; in test [2] (135 mpk PO BID), “C (C indicates 1.51-2.00)”; in test [2] (180 mpk PO BID), “C (C indicates 1.51-2.00)”. The “CD8+ T-cell % CD25+” value in test [2] (45 mpk PO BID), in test [2] (90 mpk PO BID), in test [2] (135 mpk PO BID) and in test [2] (180 mpk PO BID) was “D (D indicates 1.00-1.50)” each time. In addition, the figures for the fold induction at 0.625 µM in test [3] (setting [4]) and in test [3] (setting [5]) were 2.01 to 5 and 1.01 to 2, respectively. In addition, the fold induction at 2.5 µM was more than 5 in test [3] (setting [4]) and 2.01 to 5 in test [3] (setting [5]).

`C[C@@H](c1cc2c(c(C(F)(F)F)c1)CN(c1cccc(C3(Cc4nncn4C)COC3)c1)C2=O)N1CC[C@H](F)C1` [Compound 412, 6-((S)-1-((S)-3-fluoropyrrolidin-1-yl)ethyl)-2-(3-(3-((4-methyl-4H-1,2,4-triazol-3-yl)methyl)oxetan-3-yl)phenyl)-4-(trifluoromethyl)isoindolin-1-one]: in test [1], the fold induction at 3 µM was more than 3.01 and the fold induction at 10 µM is more than 3.01. Besides, in test [2] (90 mpk PO BID), the “CD4+ T-cell % CD25+” value is listed as “D (D indicates 1.00-1.50)” and the “CD8+ T-cell % CD25+” value is given as “D (D indicates 1.00-1.50)”. In test [2] (135 mpk PO BID), the “CD4+ T-cell % CD25+” value was “C (C indicates 1.51-2.00)” and the “CD8+ T-cell % CD25+” value is recorded as “D (D indicates 1.00-1.50)”. For the same molecule, in test [2] (180 mpk PO BID), the “CD4+ T-cell % CD25+” value is reported as “B (B indicates 2.01-2.50)” and the “CD8+ T-cell % CD25+” value was “D (D indicates 1.00-1.50)”. Also, in test [3] (setting [4]), the fold induction at 0.625 µM was in the range of 2.01 to 5, the fold induction at 2.5 µM lay in the range of 2.01 to 5 and the fold induction at 10 µM is more than 5. Further, in test [3] (setting [5]), the fold induction at 0.625 µM was in the range of 2.01 to 5, the fold induction at 2.5 µM is 2.01 to 5 and the fold induction at 10 µM lay in the range of 2.01 to 5.

Regarding `C[C@H](c1cc2c(c(C(F)(F)F)c1)CN(c1cccc(C3(Cc4nncn4C)COC3)c1)C2=O)N1CC[C@H](F)C1` [Compound 413, 6-((R)-1-((S)-3-fluoropyrrolidin-1-yl)ethyl)-2-(3-(3-((4-methyl-4H-1,2,4-triazol-3-yl)methyl)oxetan-3-yl)phenyl)-4-(trifluoromethyl)isoindolin-1-one], in test [1], the fold induction at 3 µM lay within 2.01 to 3 and the fold induction at 10 µM was more than 3.01. Further, in test [2] (90 mpk PO BID), the “CD4+ T-cell % CD25+” value is on record as “D (D indicates 1.00-1.50)” and the “CD8+ T-cell % CD25+” value was “D (D indicates 1.00-1.50)”. Moreover, in test [2] (135 mpk PO BID), the “CD4+ T-cell % CD25+” value was “D (D indicates 1.00-1.50)” and the “CD8+ T-cell % CD25+” value was “D (D indicates 1.00-1.50)”. In addition, in test [2] (180 mpk PO BID), the “CD4+ T-cell % CD25+” value is “D (D indicates 1.00-1.50)” and the “CD8+ T-cell % CD25+” value was “D (D indicates 1.00-1.50)”. For the same molecule, in test [3] (setting [4]), the fold induction at 0.625 µM fell in the range of 2.01 to 5, the fold induction at 2.5 µM is more than 5 and the fold induction at 10 µM is more than 5. Further, in test [3] (setting [5]), the fold induction at 0.625 µM is 2.01 to 5, the fold induction at 2.5 µM lay in the range of 2.01 to 5 and the fold induction at 10 µM lay in the range of 2.01 to 5.

Turning to `Cn1cnnc1CC1(c2cccc(N3Cc4c(cc(CN5CC(F)C5)cc4C(F)(F)F)C3=O)c2)COC1` [Compound 415, 6-((3-fluoroazetidin-1-yl)methyl)-2-(3-(3-((4-methyl-4H-1,2,4-triazol-3-yl)methyl)oxetan-3-yl)phenyl)-4-(trifluoromethyl)isoindolin-1-one], in test [1], the fold induction at 3 µM is 2.01 to 3 and the fold induction at 10 µM was more than 3.01. In addition, in test [2] (90 mpk PO BID), the “CD4+ T-cell % CD25+” value is on record as “D (D indicates 1.00-1.50)” and the “CD8+ T-cell % CD25+” value is given as “D (D indicates 1.00-1.50)”. For the same molecule, in test [2] (135 mpk PO BID), the “CD4+ T-cell % CD25+” value is “D (D indicates 1.00-1.50)” and the “CD8+ T-cell % CD25+” value is “E (E indicates <1.00)”. For the same molecule, in test [2] (180 mpk PO BID), the “CD4+ T-cell % CD25+” value is “D (D indicates 1.00-1.50)” and the “CD8+ T-cell % CD25+” value is on record as “E (E indicates <1.00)”. In addition, in test [3] (setting [4]), the fold induction at 0.625 µM was in the range of 2.01 to 5, the fold induction at 2.5 µM was 2.01 to 5 and the fold induction at 10 µM was more than 5. Also, in test [3] (setting [5]), the fold induction at 0.625 µM is 1.01 to 2, the fold induction at 2.5 µM lay in the range of 2.01 to 5 and the fold induction at 10 µM was in the range of 2.01 to 5.

Take `Cn1cnnc1CC1(c2cccc(NC(=O)c3cc(CN4CCC5(CC5)C4)cc(C4CC4)n3)c2)COC1` [Compound 519, 4-((5-azaspiro[2.4]heptan-5-yl)methyl)-6-cyclopropyl-N-(3-(3-((4-methyl-4H-1,2,4-triazol-3-yl)methyl)oxetan-3-yl)phenyl)picolinamide]: in test [1], the fold induction at 3 µM was more than 3.01 and the fold induction at 10 µM was more than 3.01. Besides, in test [2] (45 mpk PO BID), the “CD4+ T-cell % CD25+” value was “C (C indicates 1.51-2.00)” and the “CD8+ T-cell % CD25+” value is on record as “D (D indicates 1.00-1.50)”. In test [2] (90 mpk PO BID), the “CD4+ T-cell % CD25+” value is listed as “A (A indicates >2.50)” and the “CD8+ T-cell % CD25+” value is reported as “D (D indicates 1.00-1.50)”. For the same molecule, in test [2] (180 mpk PO BID), the “CD4+ T-cell % CD25+” value was “A (A indicates >2.50)” and the “CD8+ T-cell % CD25+” value is listed as “C (C indicates 1.51-2.00)”. Besides, in test [3] (setting [4]), the fold induction at 0.625 µM was more than 5, the fold induction at 2.5 µM is more than 5 and the fold induction at 10 µM was more than 5. Besides, in test [3] (setting [5]), the fold induction at 0.625 µM was more than 5, the fold induction at 2.5 µM fell in the range of 1.01 to 2 and the fold induction at 10 µM was in the range of 2.01 to 5.

`Cn1cnnc1CC1(c2cccc(N3Cc4c(cc(CN5CCC6(CC6)C5)cc4C(F)(F)F)C3=O)c2)COC1` [Compound 520, 6-((5-azaspiro[2.4]heptan-5-yl)methyl)-2-(3-(3-((4-methyl-4H-1,2,4-triazol-3-yl)methyl)oxetan-3-yl)phenyl)-4-(trifluoromethyl)isoindolin-1-one]: the fold induction at 3 µM in test [1] is more than 3.01. Also, the results for the fold induction at 10 µM in test [1], in test [3] (setting [4]) and in test [3] (setting [5]) were more than 3.01, more than 5 and 2.01 to 5, respectively. In addition, the “CD4+ T-cell % CD25+” value in test [2] (45 mpk PO BID) is given as “D (D indicates 1.00-1.50)”; in test [2] (90 mpk PO BID), “D (D indicates 1.00-1.50)”; in test [2] (135 mpk PO BID), “C (C indicates 1.51-2.00)”; in test [2] (180 mpk PO BID), “B (B indicates 2.01-2.50)”. Also, the “CD8+ T-cell % CD25+” value in test [2] (45 mpk PO BID), in test [2] (90 mpk PO BID), in test [2] (135 mpk PO BID) and in test [2] (180 mpk PO BID) was “D (D indicates 1.00-1.50)” in each case. The fold induction at 0.625 µM was more than 5 in test [3] (setting [4]) and 2.01 to 5 in test [3] (setting [5]). In addition, the fold induction at 2.5 µM in test [3] (setting [4]) and in test [3] (setting [5]) was more than 5 each time.
